PMC11770821, “Pharmacokinetics and pharmacodynamics of an innovative psychedelic N,N-dimethyltryptamine/harmine formulation in healthy participants: a randomized controlled trial” (International Journal of Neuropsychopharmacology, 2025)

System: healthy male volunteers
Assay: Undesired drug effects / adverse events questionnaire (y/n and VAS 0–100)
Assay type: in vivo, human
[1] = 0 min after first intranasal DMT/placebo administration
[2] = 60 min after first intranasal DMT/placebo administration
[3] = 120 min after first intranasal DMT/placebo administration
[4] = 180 min after first intranasal DMT/placebo administration

Protocol: The participants were monitored with regard to AEs throughout the experiment by the study physician, including questionnaire-based assessments (VAS, 0-100 or y/n) of physical and mental discomfort, breathing difficulties, racing heartbeat, chest or abdominal pains, unpleasant body sensations/muscle pain, headache, nausea, vomiting, and fainting at baseline (−105), 0, 30, 60, 120, 240, and 300 minutes after DMT/placebo administration. Vital signs (systolic/diastolic blood pressure [DBP], heart rate, body temperature [BT]) were assessed using a semiautomatic blood pressure and oral temperature recording device throughout the study at baseline (−45), 0, 30, 120, 150, 210, and 270 minutes after the first DMT/placebo administration.

With COc1ccc2c(c1)[nH]c1c(C)nccc12 [Harmine, harmine] the “Breathing difficulty, mean intensity [0–100] (SD)” value (shortened to “Breathing difficulty … (SD)”) [1] was 18 (25), the “Breathing difficulty, number of participants reporting” value (from here on “Breathing difficulty, number”) [1] was 3 and the “Chest pain, mean intensity [0–100] (SD)” value [1] was 24 (32). For the same compound, the “Chest pain, number of participants reporting” value (from here on “Chest pain, number”) [1] was 2, the “Fainting, mean intensity [0–100] (SD)” value [1] was 0 (0) and the “Fainting, number of participants reporting” value (“Fainting, number” below) [1] was 0. For the same compound, the “Head ache, mean intensity [0–100] (SD)” value [1] was 3 (0), the “Head ache, number of participants reporting” value (“Head ache, number” for short) [1] was 1 and the “Heart racing, mean intensity [0–100] (SD)” value (shortened to “Heart racing … (SD)”) [1] was 28 (35). The “Heart racing, number of participants reporting” value (from here on “Heart racing, number”) [1] was 2, the “Muscle ache, mean intensity [0–100] (SD)” value [1] was 9 (7) and the “Muscle ache, number of participants reporting” value (from here on “Muscle ache, number”) [1] was 6. The “Nausea, mean intensity [0–100] (SD)” value [1] was 2 (0), the “Nausea, number of participants reporting” value [1] was 1 and the “Psychological distress, mean intensity [0–100] (SD)” value (“Psychological distress … (SD)” for short) [1] was 6 (2). For the same compound, the “Psychological distress, number of participants reporting” value (shortened to “Psychological distress, number”) [1] was 3, the “Somatic distress, mean intensity [0–100] (SD)” value (“Somatic distress … (SD)” for short) [1] was 18 (14) and the “Somatic distress, number of participants reporting” value (“Somatic distress, number” below) [1] was 5. For the same compound, the “Stomach ache, mean intensity [0–100] (SD)” value (“Stomach ache … (SD)” below) [1] was 2 (0), the “Stomach ache, number of participants reporting” value (shortened to “Stomach ache, number”) [1] was 1 and the “Vomiting, mean intensity [0–100] (SD)” value [1] was 0 (0). For the same compound, the “Vomiting, number of participants reporting” value (from here on “Vomiting, number”) [1] was 0, the “Breathing difficulty … (SD)” value [2] was 21 (28) and the “Breathing difficulty, number” value [2] was 2. For the same compound, the “Chest pain, mean intensity [0–100] (SD)” value [2] was 13 (8), the “Chest pain, number” value [2] was 2 and the “Fainting, mean intensity [0–100] (SD)” value [2] was 0 (0). For the same compound, the “Fainting, number” value [2] was 0, the “Head ache, mean intensity [0–100] (SD)” value [2] was 34 (47) and the “Head ache, number” value [2] was 2. For the same compound, the “Heart racing … (SD)” value [2] was 9 (0), the “Heart racing, number” value [2] was 1 and the “Muscle ache, mean intensity [0–100] (SD)” value [2] was 22 (0). For the same compound, the “Muscle ache, number” value [2] was 2, the “Nausea, mean intensity [0–100] (SD)” value [2] was 11 (10) and the “Nausea, number of participants reporting” value [2] was 3. For the same compound, the “Psychological distress … (SD)” value [2] was 8 (8), the “Psychological distress, number” value [2] was 2 and the “Somatic distress … (SD)” value [2] was 9 (5). For the same compound, the “Somatic distress, number” value [2] was 5, the “Stomach ache … (SD)” value [2] was 52 (0) and the “Stomach ache, number” value [2] was 1. The “Vomiting, mean intensity [0–100] (SD)” value [2] was 0 (0), the “Vomiting, number” value [2] was 0 and the “Breathing difficulty … (SD)” value [3] was 7 (8). For the same compound, the “Breathing difficulty, number” value [3] was 3, the “Chest pain, mean intensity [0–100] (SD)” value [3] was 4 (3) and the “Chest pain, number” value [3] was 3. For the same compound, the “Fainting, mean intensity [0–100] (SD)” value [3] was 0 (0), the “Fainting, number” value [3] was 0 and the “Head ache, mean intensity [0–100] (SD)” value [3] was 11 (0). For the same compound, the “Head ache, number” value [3] was 1, the “Heart racing … (SD)” value [3] was 5 (5) and the “Heart racing, number” value [3] was 3. For the same compound, the “Muscle ache, mean intensity [0–100] (SD)” value [3] was 10 (9), the “Muscle ache, number” value [3] was 3 and the “Nausea, mean intensity [0–100] (SD)” value [3] was 15 (0). For the same compound, the “Nausea, number of participants reporting” value [3] was 1, the “Psychological distress … (SD)” value [3] was 4 (5) and the “Psychological distress, number” value [3] was 2. For the same compound, the “Somatic distress … (SD)” value [3] was 7 (5), the “Somatic distress, number” value [3] was 7 and the “Stomach ache … (SD)” value [3] was 30 (37). For the same compound, the “Stomach ache, number” value [3] was 2, the “Vomiting, mean intensity [0–100] (SD)” value [3] was 0 (0) and the “Vomiting, number” value [3] was 0. The “Breathing difficulty … (SD)” value [4] was 0 (0), the “Breathing difficulty, number” value [4] was 0 and the “Chest pain, mean intensity [0–100] (SD)” value [4] was 0 (0). The “Chest pain, number” value [4] was 0, the “Fainting, mean intensity [0–100] (SD)” value [4] was 0 (0) and the “Fainting, number” value [4] was 0. The “Head ache, mean intensity [0–100] (SD)” value [4] was 72 (0), the “Head ache, number” value [4] was 1 and the “Heart racing … (SD)” value [4] was 1 (0). The “Heart racing, number” value [4] was 1, the “Muscle ache, mean intensity [0–100] (SD)” value [4] was 16 (14) and the “Muscle ache, number” value [4] was 4. The “Nausea, mean intensity [0–100] (SD)” value [4] was 1 (0), the “Nausea, number of participants reporting” value [4] was 1 and the “Psychological distress … (SD)” value [4] was 9 (0). For the same compound, the “Psychological distress, number” value [4] was 1.
